Measurements: patent US4594347A, “Pyrrolo [3,2,1-ij]-quinoline carboxylic acid compound” (Otsuka Pharmaceutical Co. Limited, priority 1983, dated 1986)

Legend:
Proteus mirabilis 1287 = test: Antimicrobial test in vitro (MIC, agar plate dilution method); format: cell-based; set-up: unit not given here; conditions: P. mirabilis 1287
Method: (§1) The antimicrobial activities of the following test compounds were tested by measuring the minimum inhibitory concentration (MIC) by an agar plate dilution method [cf. Chemotherapy, 22, 1126-1128 (1974)]. The test microorganisms were used in a concentration of 1×10^8 cells/ml (optical dencity (O.D.) at 660 m: 0.07-0.16) and 1×10^6 cells/ml (dilution: 100 folds).
F: Proteus mirabilis 1287

[1] = test system: Klebsiella pneumoniae NCTC 9632; test: as above; format: cell-based; set-up: unit not given here; conditions: K. pneumoniae NCTC 9632
Method: as §1
E: Klebsiella pneumoniae NCTC 9632

[2] = test system: Staphylococcus aureus FDA 209P; test: as above; format: cell-based; set-up: unit not given here; conditions: S. aureus FDA 209P
Method: as §1
A: Staphylococcus aureus FDA 209P

[3] = test system: Streptococcus pyogenes II D S-23; test: as above; format: cell-based; set-up: unit not given here; conditions: S. pyogenes II D S-23
Method: as §1
B: Streptococcus pyogenes II D S-23

[4] = test system: Pseudomonas aeruginosa E-2; test: as above; format: cell-based; set-up: unit not given here; conditions: P. aeruginosa E-2
Method: as §1
K: Pseudomonas aeruginosa E-2

[5] = test system: Acinetobacter calcoaceticus AC-54; test: as above; format: cell-based; set-up: unit not given here; conditions: A. calcoaceticus AC-54
Method: as §1
I: Acinetobacter calcoaceticus AC-54

[6] = test system: Proteus morganii II D Kono; test: as above; format: cell-based; set-up: unit not given here; conditions: P. morganii II D Kono
Method: as §1
G: Proteus morganii II D Kono

[7] = test system: Pseudomonas aeruginosa ATCC 10145; test: as above; format: cell-based; set-up: unit not given here; conditions: P. aeruginosa ATCC 10145
Method: as §1
J: Pseudomonas aeruginosa ATCC 10145

[8] = test system: Serratia marcescens IFO 12648; test: as above; format: cell-based; set-up: unit not given here; conditions: S. marcescens IFO 12648
Method: as §1
H: Serratia marcescens IFO 12648

[9] = test system: Escherichia coli NIHJ JC-2; test: as above; format: cell-based; set-up: unit not given here; conditions: E. coli NIHJ JC-2
Method: as §1
C: Escherichia coli NIHJ JC-2

Escherichia coli No. 29 = test: as above; format: cell-based; set-up: unit not given here; conditions: E. coli No. 29
Method: as §1
D: Escherichia coli No. 29

[10] = test system: Pseudomonas aeruginosa E-2; test: Therapeutic effects of compounds in urinary infectious diseases in vivo; set-up: species or system JCL:S.D. female rats; conditions: E2, 96 h, female S.D. rats, bladder infection, oral at 6, 24 and 48 hours, urine and kidney colonies after 4 days, Probit method, read-out: 50% effective dose (ED50)
Method: Pseudomonas aeruginosa E-2 was cultured in a nutrient medium at 37° C. for 18 hours and the culture broth thus obtained was diluted with the same medium to prepare a solution of the microorganism (cell concentration: 10^7 cells/ml). To the solution were dipped a UV-sterilized disc [glyceryl monomyristate (manufactured by Nikko Chemicals, Japan) and sodium cetylsulfurate (manufactured by Nikko Chemicals, Japan) in a weight ratio of 9:1; diameter: 2.0 mm, length: 3.0 mm] under ice-cooling for 1.5 hour to give a microorganism-containing disc for inoculation.
The above-prepared disc was surgically inserted into the bladder of JCL:S.D. female rats (one group: four rats) anaesthetized with secobarbital sodium. After the animals have been infected with the microorganism, i.e. 6 hours after the insertion of the disc, 1% oxamide-containing feed and water were administered to the animals. The oxamide-containing feed was changed to a normal feed after 24 hours. Test compounds 1, 7 and 8 as used in Test 1 (in the form of a 0.5% CMC suspension) were each orally administered to the animals in a dose of 16 mg/kg, 8.0 mg/kg, 4.0 mg/kg, 2.0 mg/kg, and 1.0 mg/kg at 6, 24 and 48 hours after the insertion of disc. After 4 days from the infection, urine was collected and further the kidney was taken out from the animals, and then the presence of microorganism was checked as to the collected urine and kidney. That is, 0.1 ml of the urine was applied onto an agar plate medium and cultured at 37° C. for 18 hours, and the number of colonies was counted. Besides, the taken out kidney was divided into two, and the plain section was contacted to an agar plate medium, and the medium was cultured likewise, and the number of colonies was counted, likewise. When the number of colonies was less than 10, it was evaluated as "effective," and when the number of colonies was more than 10, it was evaluated as "ineffective". […]

Row | SMILES | minimum inhibitory concentration (MIC) (Proteus mirabilis 1287; 1×10^6 cells/ml) | minimum inhibitory concentration (MIC) (Proteus mirabilis 1287; 1×10^8 cells/ml) | minimum inhibitory concentration (MIC) ([1]; 1×10^6 cells/ml) | minimum inhibitory concentration (MIC) ([1]; 1×10^8 cells/ml) | minimum inhibitory concentration (MIC) ([2]; 1×10^6 cells/ml) | minimum inhibitory concentration (MIC) ([2]; 1×10^8 cells/ml) | minimum inhibitory concentration (MIC) ([3]; 1×10^6 cells/ml) | minimum inhibitory concentration (MIC) ([3]; 1×10^8 cells/ml) | minimum inhibitory concentration (MIC) ([4]; 1×10^6 cells/ml) | minimum inhibitory concentration (MIC) ([4]; 1×10^8 cells/ml) | minimum inhibitory concentration (MIC) ([5]; 1×10^6 cells/ml) | minimum inhibitory concentration (MIC) ([5]; 1×10^8 cells/ml) | minimum inhibitory concentration (MIC) ([6]; 1×10^6 cells/ml) | minimum inhibitory concentration (MIC) ([6]; 1×10^8 cells/ml) | minimum inhibitory concentration (MIC) ([7]; 1×10^6 cells/ml) | minimum inhibitory concentration (MIC) ([7]; 1×10^8 cells/ml) | minimum inhibitory concentration (MIC) ([8]; 1×10^6 cells/ml) | minimum inhibitory concentration (MIC) ([8]; 1×10^8 cells/ml) | minimum inhibitory concentration (MIC) ([9]; 1×10^6 cells/ml) | minimum inhibitory concentration (MIC) ([9]; 1×10^8 cells/ml) | also measured
1 | CC1Cc2c(N3CCNCC3)c(F)c(N)c3c(=O)c(C(=O)O)cn1c23 (stereo not shown) [Compound 2, 8-fluoro-2-methyl-9-(1-piperazinyl)-7-amino-6-oxo-1,2-dihydro-pyrrolo[3,2,1-ij]quinoline-5-carboxylic acid] | 0.2 | 0.2 | 0.1 | 0.2 | 0.39 | 0.78 | 3.13 | 6.25 | 0.39 | 0.39 | 0.78 | 3.13 | 0.2 | 0.39 | 0.39 | 0.39 | 0.2 | 0.2 | 0.1 | 0.1 | minimum inhibitory concentration (MIC) (Escherichia coli No. 29; 1×10^6 cells/ml): 0.1; minimum inhibitory concentration (MIC) (Escherichia coli No. 29; 1×10^8 cells/ml): 0.1
2 | CC1Cc2c(N3CCOCC3)c(F)c(N)c3c(=O)c(C(=O)O)cn1c23 (stereo not shown) [Compound 3, 7-amino-8-fluoro-9-(4-morpholino)-2-methyl-6-oxo-1,2-dihydro-pyrrolo[3,2,1-ij]quinoline-5-carboxylic acid] | 0.78 | 1.56 | 0.39 | 0.39 | 0.2 | 0.39 | 12.5 | 12.5 | 6.25 | 6.25 | 0.78 | 1.56 | 0.39 | 0.39 | 3.13 | 6.25 | 0.78 | 0.78 | 0.2 | 0.2 | minimum inhibitory concentration (MIC) (Escherichia coli No. 29; 1×10^6 cells/ml): 0.2; minimum inhibitory concentration (MIC) (Escherichia coli No. 29; 1×10^8 cells/ml): 0.39
3 | CC1Cc2c(N3CCCCC3)c(F)c(N)c3c(=O)c(C(=O)O)cn1c23 (stereo not shown) [Compound 4, 7-amino-8-fluoro-2-methyl-6-oxo-9-(1-piperidyl)-1,2-dihydro-pyrrolo[3,2,1-ij]quinoline-5-carboxylic acid] | 6.25 | 6.25 | 1.56 | 3.13 | 0.39 | 0.39 | 25 | 25 | 25 | 25 | 6.25 | 6.25 | 1.56 | 1.56 | 12.5 | 25 | 6.25 | 6.25 | 0.78 | 0.78 | minimum inhibitory concentration (MIC) (Escherichia coli No. 29; 1×10^6 cells/ml): 1.56; minimum inhibitory concentration (MIC) (Escherichia coli No. 29; 1×10^8 cells/ml): 1.56
4 | CC1Cc2c(N3CCC(O)CC3)c(F)c(N)c3c(=O)c(C(=O)O)cn1c23 (stereo not shown) [Compound 5, 7-amino-8-fluoro-9-(4-hydroxy-1-piperidyl)-2-methyl-6-oxo-1,2-dihydro-pyrrolo[3,2,1-ij]quinoline-5-carboxylic acid] | 1.56 | 1.56 | 0.78 | 0.78 | 0.2 | 0.39 | 6.25 | 12.5 | 6.25 | 12.5 | 3.13 | 6.25 | 1.56 | 1.56 | 6.25 | 6.25 | 1.56 | 3.13 | 0.39 | 0.78 | minimum inhibitory concentration (MIC) (Escherichia coli No. 29; 1×10^6 cells/ml): 0.78; minimum inhibitory concentration (MIC) (Escherichia coli No. 29; 1×10^8 cells/ml): 0.78
5 | CC1Cc2c(N3CCCC3)c(F)c(N)c3c(=O)c(C(=O)O)cn1c23 (stereo not shown) [Compound 6, 7-amino-8-fluoro-2-methyl-6-oxo-9-(1-pyrrolidinyl)-1,2-dihydro-pyrrolo[3,2,1-ij]quinoline-5-carboxylic acid] | 6.25 | 6.25 | 1.56 | 6.25 | 0.39 | 0.78 | 6.25 | 12.5 | 1.56 | 12.5 | 6.25 | 6.25 | 6.25 | 6.25 | 6.25 | 12.5 | 6.25 | 6.25 | 0.78 | 1.56 | minimum inhibitory concentration (MIC) (Escherichia coli No. 29; 1×10^6 cells/ml): 1.56; minimum inhibitory concentration (MIC) (Escherichia coli No. 29; 1×10^8 cells/ml): 1.56
6 | CC1Cc2c(N3CCN(C)CC3)c(F)cc3c(=O)c(C(=O)O)cn1c23 (stereo not shown) [Test compound 7, 8-fluoro-2-methyl-6-oxo-9-(4-methyl-1-piperazinyl)-1,2-dihydro-pyrrolo[3,2,1-ij]quinoline-5-carboxylic acid] | – | – | – | – | – | – | – | – | – | – | – | – | – | – | – | – | – | – | – | – | ED50 [10]: 6.15 mg/kg
7 | CC1CCc2c(N3CCN(C)CC3)c(F)cc3c(=O)c(C(=O)O)cn1c23 (stereo not shown) [Test compound 8, 8-(4-methyl-1-piperazinyl)-9-fluoro-5-methyl-6,7-dihydro-1-oxo-1H,5H-benzo[ij]quinolidine-2-carboxylic acid] | – | – | – | – | – | – | – | – | – | – | – | – | – | – | – | – | – | – | – | – | ED50 [10]: 12 mg/kg
